target: T1, Recombinant human EP300 containing the bromodomain (EP300-BD (1040-1161)) (Homo sapiens, UniProt Q09472); assay: EP300 Alphascreen binding assay
T1 construct: Recombinant human EP300 bromodomain (EP300-BD (1040-1161)); made in house; host or cells: E. coli BL21-CodonPlus (DE3), modified pET vector
T1 sequence (Q09472 1040-1161): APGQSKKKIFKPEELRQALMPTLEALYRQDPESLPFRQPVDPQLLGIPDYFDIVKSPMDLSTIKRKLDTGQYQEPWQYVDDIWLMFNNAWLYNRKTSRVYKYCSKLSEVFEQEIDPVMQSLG
How it was run: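 Displacement of a biotinylated acetyl-K56 histone H3 peptide from the N-His bromodomain construct (1040-1161) measured by AlphaScreen proximity, beads at 7.5 μg/ml final, read 60 min after addition. Protein, peptide and compound first incubated 1 h at room temperature, pH 7.5 HEPES buffer; IC50 by four-parameter logistic fit.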

| Structure (SMILES) | IC50 [nM] |
| --- | --- |
| Cc1noc(C)c1-c1cnc2c(c1)c(-c1ccc(C(=O)O)cc1OC(F)(F)F)cn2-c1ncccc1C#N [P-0215, 4-(1-(3-cyanopyridin-2-yl)-5-(3,5-dimethylisoxazol-4-yl)-1H-pyrrolo[2,3-b]pyridin-3-yl)-3-(trifluoromethoxy)benzoic acid] | 0.1 to 1000 |
| Cc1noc(C)c1-c1cnc2c(c1)c(-c1ccc(C(=O)O)cc1OC(F)(F)F)cn2-c1ccccc1 [P-0188, 4-(5-(3,5-dimethylisoxazol-4-yl)-1-phenyl-1H-pyrrolo[2,3-b]pyridin-3-yl)-3-(trifluoromethoxy)benzoic acid] | 0.1 to 1000 |
| Cc1noc(C)c1-c1cnc2c(c1)c(-c1ccc(C(=O)O)cc1OC1CCC1)cn2[C@@H](C)c1ccccn1 [P-0179, (S)-3-cyclobutoxy-4-(5-(3,5-dimethylisoxazol-4-yl)-1-(1-(pyridin-2-yl)ethyl)-1H-pyrrolo[2,3-b]pyridin-3-yl)benzoic acid] | 0.1 to 1000 |
| Cc1noc(C)c1-c1cnc2c(-c3ccc(C(=O)O)c(F)c3)c(C(F)(F)F)n([C@@H](C)c3ccccn3)c2c1 [P-0242, (S)-4-(6-(3,5-dimethylisoxazol-4-yl)-1-(1-(pyridin-2-yl)ethyl)-2-(trifluoromethyl)-1H-pyrrolo[3,2-b]pyridin-3-yl)-2-fluorobenzoic acid] | 1000 to 8000 |
| Cc1noc(C)c1-c1cnc2c(c1)c(-c1ccc(C(=O)O)cc1OC(F)(F)F)cn2S(=O)(=O)C1CC1 [P-0202, 4-(1-(cyclopropylsulfonyl)-5-(3,5-dimethylisoxazol-4-yl)-1H-pyrrolo[2,3-b]pyridin-3-yl)-3-(trifluoromethoxy)benzoic acid] | 0.1 to 1000 |
| CCOc1cc(C(=O)O)cc(OCC)c1-n1cc(-c2ccc(F)cc2)c2ncc(-c3c(C)noc3C)cc21 [P-0184, 4-(6-(3,5-dimethylisoxazol-4-yl)-3-(4-fluorophenyl)-1H-pyrrolo[3,2-b]pyridin-1-yl)-3,5-diethoxybenzoic acid] | 0.1 to 1000 |
| CCOc1cc(C(=O)O)cc(OCC)c1-n1cc(C2=CCC(F)(F)CC2)c2ncc(-c3c(C)noc3C)cc21 [P-0208, 4-(3-(4,4-difluorocyclohex-1-en-1-yl)-6-(3,5-dimethylisoxazol-4-yl)-1H-pyrrolo[3,2-b]pyridin-1-yl)-3,5-diethoxybenzoic acid] | 0.1 to 1000 |
| Cc1noc(C)c1-c1cnc2c(c1)c(-c1ccc(C(=O)O)cc1OC(F)(F)F)cn2-c1ccccc1F [P-0223, 4-(5-(3,5-dimethylisoxazol-4-yl)-1-(2-fluorophenyl)-1H-pyrrolo[2,3-b]pyridin-3-yl)-3-(trifluoromethoxy)benzoic acid] | 0.1 to 1000 |
| CCOc1ccc(C(=O)O)cc1-n1cc(-c2ccccc2)c2ncc(-c3c(C)noc3C)cc21 [P-0225, 3-(6-(3,5-dimethylisoxazol-4-yl)-3-phenyl-1H-pyrrolo[3,2-b]pyridin-1-yl)-4-ethoxybenzoic acid] | 0.1 to 1000 |
| Cc1noc(C)c1-c1cnc2c(-c3cc(C(=O)O)ccc3F)c(C(F)(F)F)n([C@@H](C)c3ccccn3)c2c1 [P-0238, (S)-3-(6-(3,5-dimethylisoxazol-4-yl)-1-(1-(pyridin-2-yl)ethyl)-2-(trifluoromethyl)-1H-pyrrolo[3,2-b]pyridin-3-yl)-4-fluorobenzoic acid] | 0.1 to 1000 |
| Cc1noc(C)c1-c1cnc2c(c1)c(-c1ccnc(C(=O)O)c1)cn2C(c1ccccn1)C1CCCC1 (stereo not drawn) [P-0017, 4-(1-(cyclopentyl(pyridin-2-yl)methyl)-5-(3,5-dimethylisoxazol-4-yl)-1H-pyrrolo[2,3-b]pyridin-3-yl)picolinic acid] | 0.1 to 1000 |
| CCOc1cc(C(=O)O)cc(F)c1-n1cc(-c2ccccc2)c2ncc(-c3c(C)noc3C)cc21 [P-0205, 4-(6-(3,5-dimethylisoxazol-4-yl)-3-phenyl-1H-pyrrolo[3,2-b]pyridin-1-yl)-3-ethoxy-5-fluorobenzoic acid] | 0.1 to 1000 |
| Cc1noc(C)c1-c1cnc2c(-c3ccc(C(=O)O)cc3C#CC3CC3)cn([C@@H](C)c3ccccn3)c2c1 [P-0171, (S)-3-(cyclopropylethynyl)-4-(6-(3,5-dimethylisoxazol-4-yl)-1-(1-(pyridin-2-yl)ethyl)-1H-pyrrolo[3,2-b]pyridin-3-yl)benzoic acid] | 0.1 to 1000 |
| Cc1noc(C)c1-c1cnc2c(c1)c(-c1ccc(C(=O)O)cc1C1CC1)cn2[C@@H](C)c1ccccn1 [P-0181, (S)-3-cyclopropyl-4-(5-(3,5-dimethylisoxazol-4-yl)-1-(1-(pyridin-2-yl)ethyl)-1H-pyrrolo[2,3-b]pyridin-3-yl)benzoic acid] | 0.1 to 1000 |
| CCOc1cc(C(=O)O)cc(OCC)c1-n1cc(-c2cccc(Cl)c2)c2ncc(-c3c(C)noc3C)cc21 [P-0185, 4-(3-(3-chlorophenyl)-6-(3,5-dimethylisoxazol-4-yl)-1H-pyrrolo[3,2-b]pyridin-1-yl)-3,5-diethoxybenzoic acid] | 0.1 to 1000 |
| Cc1cc(C(=O)O)ccc1-c1c(C(F)(F)F)n([C@@H](C)c2ccccn2)c2cc(-c3c(C)noc3C)cnc12 [P-0235, (S)-4-(6-(3,5-dimethylisoxazol-4-yl)-1-(1-(pyridin-2-yl)ethyl)-2-(trifluoromethyl)-1H-pyrrolo[3,2-b]pyridin-3-yl)-3-methylbenzoic acid] | 0.1 to 1000 |
| Cc1noc(C)c1-c1cnc2c(c1)c(-c1ccc(C(=O)O)cc1OC(C)C)cn2C(C1CC1)C1CC1 [P-0213, 4-(1-(dicyclopropylmethyl)-5-(3,5-dimethylisoxazol-4-yl)-1H-pyrrolo[2,3-b]pyridin-3-yl)-3-isopropoxybenzoic acid] | 0.1 to 1000 |
| CCOc1cc(C(=O)O)cc(OCC)c1-n1cc(-c2cnn(C)c2)c2ncc(-c3c(C)noc3C)cc21 [P-0195, 4-(6-(3,5-dimethylisoxazol-4-yl)-3-(1-methyl-1H-pyrazol-4-yl)-1H-pyrrolo[3,2-b]pyridin-1-yl)-3,5-diethoxybenzoic acid] | 0.1 to 1000 |
| CCOc1cc(C(=O)O)cc(OCC)c1-n1cc(-c2ccc(C#N)cc2F)c2ncc(-c3c(C)noc3C)cc21 [P-0217, 4-(3-(4-cyano-2-fluorophenyl)-6-(3,5-dimethylisoxazol-4-yl)-1H-pyrrolo[3,2-b]pyridin-1-yl)-3,5-diethoxybenzoic acid] | 0.1 to 1000 |
| Cc1noc(C)c1-c1cnc2c(c1)c(-c1ccc(C(=O)O)cc1OC(F)(F)F)cn2C1CCC(F)(F)CC1 [P-0227, 4-(1-(4,4-difluorocyclohexyl)-5-(3,5-dimethylisoxazol-4-yl)-1H-pyrrolo[2,3-b]pyridin-3-yl)-3-(trifluoromethoxy)benzoic acid] | 0.1 to 1000 |
| Cc1noc(C)c1-c1cnc2c(c1)c(-c1ccc(F)c(C(=O)O)c1)cn2C(c1ccccn1)C1CCCC1 (stereo not drawn) [P-0016, 5-(1-(cyclopentyl(pyridin-2-yl)methyl)-5-(3,5-dimethylisoxazol-4-yl)-1H-pyrrolo[2,3-b]pyridin-3-yl)-2-fluorobenzoic acid] | 0.1 to 1000 |
| Cc1noc(C)c1-c1cnc2c(c1)c(-c1ccc(C(=O)O)cc1OC(F)(F)F)cn2C(CC#N)C1CC1 (stereo not drawn) [P-0199, 4-(1-(2-cyano-1-cyclopropylethyl)-5-(3,5-dimethylisoxazol-4-yl)-1H-pyrrolo[2,3-b]pyridin-3-yl)-3-(trifluoromethoxy)benzoic acid] | 0.1 to 1000 |
| COc1cc(C(=O)O)ccc1-c1c(C(F)(F)F)n([C@@H](C)c2ccccn2)c2cc(-c3c(C)noc3C)cnc12 [P-0236, (S)-4-(6-(3,5-dimethylisoxazol-4-yl)-1-(1-(pyridin-2-yl)ethyl)-2-(trifluoromethyl)-1H-pyrrolo[3,2-b]pyridin-3-yl)-3-methoxybenzoic acid] | 0.1 to 1000 |
| Cc1noc(C)c1-c1cnc2c(-c3ccccc3)cn(-c3ccc(C(=O)O)cc3OC(F)(F)F)c2c1 [P-0196, 4-(6-(3,5-dimethylisoxazol-4-yl)-3-phenyl-1H-pyrrolo[3,2-b]pyridin-1-yl)-3-(trifluoromethoxy)benzoic acid] | 0.1 to 1000 |
| Cc1ccncc1-n1cc(-c2ccc(C(=O)O)cc2OC(F)(F)F)c2cc(-c3c(C)noc3C)cnc21 [P-0189, 4-(5-(3,5-dimethylisoxazol-4-yl)-1-(4-methylpyridin-3-yl)-1H-pyrrolo[2,3-b]pyridin-3-yl)-3-(trifluoromethoxy)benzoic acid] | 0.1 to 1000 |
| Cc1noc(C)c1-c1cnc2c(c1)c(-c1ccc(C(=O)O)cc1OC(F)(F)F)cn2-c1ncccc1C(F)(F)F [P-0180, 4-(5-(3,5-dimethylisoxazol-4-yl)-1-(3-(trifluoromethyl)pyridin-2-yl)-1H-pyrrolo[2,3-b]pyridin-3-yl)-3-(trifluoromethoxy)benzoic acid] | 0.1 to 1000 |
| Cc1noc(C)c1-c1cnc2c(c1)c(-c1ccc(C(=O)O)cc1OC(F)(F)F)cn2-c1cnccc1Cl [P-0177, 4-(1-(4-chloropyridin-3-yl)-5-(3,5-dimethylisoxazol-4-yl)-1H-pyrrolo[2,3-b]pyridin-3-yl)-3-(trifluoromethoxy)benzoic acid] | 0.1 to 1000 |
| Cc1cnccc1-n1cc(-c2ccc(C(=O)O)cc2OC(F)(F)F)c2cc(-c3c(C)noc3C)cnc21 [P-0211, 4-(5-(3,5-dimethylisoxazol-4-yl)-1-(3-methylpyridin-4-yl)-1H-pyrrolo[2,3-b]pyridin-3-yl)-3-(trifluoromethoxy)benzoic acid] | 0.1 to 1000 |
| Cc1noc(C)c1-c1cnc2c(c1)c(-c1c(Cl)cc(C(=O)O)cc1OC(F)(F)F)cn2C(C1CC1)C1CC1 [P-0198, 3-chloro-4-(1-(dicyclopropylmethyl)-5-(3,5-dimethylisoxazol-4-yl)-1H-pyrrolo[2,3-b]pyridin-3-yl)-5-(trifluoromethoxy)benzoic acid] | 0.1 to 1000 |
| CCOc1cc(C(=O)O)cc(OC(C)C)c1-c1cn([C@@H](C)c2ccccn2)c2ncc(-c3c(C)noc3C)cc12 [P-0174, (S)-4-(5-(3,5-dimethylisoxazol-4-yl)-1-(1-(pyridin-2-yl)ethyl)-1H-pyrrolo[2,3-b]pyridin-3-yl)-3-ethoxy-5-isopropoxybenzoic acid] | 0.1 to 1000 |
